Where two headings read alike, the source gives them in different places.
System: OCD patients with inadequate response to standard of care treatment
Settings: for YBOCS Compulsions Subscale Change from Baseline, LS Mean / YBOCS Compulsions Subscale Change from Baseline, Troriluzole vs Placebo Difference Estimate / YBOCS Obsessions Subscale Change from Baseline, LS Mean / YBOCS Obsessions Subscale Change from Baseline, Troriluzole vs Placebo Difference Estimate / YBOCS Total Change from Baseline, Troriluzole vs Placebo Difference Estimate / YBOCS Total Change from Baseline, LS Mean / YBOCS Total Score Change from Baseline, LS Mean: MITT data set, MMRM; for YBOCS Total Score Change from Baseline, LS Mean: only subjects <= median baseline YBOCS total = 26, not validated
Description: In some embodiments of the invention, the individual treated according to the claimed method is assessed using the Yale Brown Obsessive Compulsive Scale (“Y-BOCS”). See Goodman et al., Arch. Gen. Psychiatry, 1989, 46, 1006-1011. According to this system, an individual is scored using a symptom checklist by asking the individual about specific obsessions and compulsions. Such symptoms are broadly categorized as aggressive obsessions, contamination obsessions, sexual obsessions, hoarding/saving obsessions, religious obsessions, obsession with need for symmetry or exactness, miscellaneous obsessions, somatic obsessions, cleaning/washing compulsions, checking compulsions, repeating rituals, counting compulsions, ordering/arranging compulsions, and miscellaneous compulsions. Each of these categories is further divided by subcategory of more specific symptoms. Individuals are scored according to the answers provided. Scores range from 0-7 for subclinical, 8-15 for mild, 16-23 for moderate, 24-31 for severe, and 32-40 for extreme severity.
Subjects receive a dose of 140 mg QD for the first four (4) weeks, and the dose is then increased to 200 mg QD for the duration of the study. Down titration is only allowed to address tolerability issues**. Eligible subjects include those who perceived benefit in earlier phases or for whom the Principal Investigator (PI) believes extended treatment with BHV-4157 would offer an acceptable risk-benefit profile***. Subjects start the Extension phase on the dose that was taken at the end of the Randomization phase. Subjects receiving placebo in the randomization phase are blindly switched to a 140 mg dose QD for the first 4 week, and the dose is then increased to 200 mg QD (at the Week 4 visits). Down titration is only allowed to address tolerability issues. All visits after Week 4 are open-label****.
Subjects who are stable on Standard of Care (SOC) medication and having an inadequate response to SOC are randomized to additionally receive placebo (QD) or troriluzole for 12 weeks (200 mg QD, after four weeks at 140 mg QD). Subjects completing the Randomization Phase are offered approximately 48 weeks of open-label treatment. The study is conducted from December 2017 to June 2020 with 242 subjects randomized at over 56 sites. The full study details are available online at https://clinicaltrials.gov/ct2/show/study/NCT03299166?term=biohaven&cond=Obsessive-Compulsive+Disorder&draw=2&rank=1.
The study involves subjects with a primary diagnosis of OCD as per Diagnostic and Statistical Manual of Mental Disorders, Fifth Edition, as confirmed by the MINI at screening.
Duration of the subject's illness must be equal to or greater than 1 year.
The Clinical Global Impression Score (CGI-S) must be equal to or greater than 4 at screening and baseline.
Subjects are excluded with a history of more than two (2) previous failed treatment trials of SSRIs, clomipramine, venlafaxine, or desvenlafaxine, (not including the current SSRI trial) given for an adequate duration at an adequate dose as defined by the MGH-TRQ-OCD.
Subjects are excluded if they display acute suicidality or suicide attempt or self-injurious behavior in the last 12 months.
Subjects are excluded if they have a Brown Assessment of Beliefs (BABS) score of greater than 17 at screening and baseline.
Use of a stimulant, neuroleptic (antipsychotic), mood stabilizer and glutamate agent (e.g., topiramate, lamotrigine, N-acetylcysteine, ketamine, memantine, sodium valproate) is prohibited within the 4 weeks prior to screening and during the study.
Current daily anxiolytic or benzodiazepine use is prohibited.

[1] = Week 4, only subjects > baseline YBOCS = 26 (median)
[2] = Week 8, only subjects > baseline YBOCS = 26 (median)
[3] = Week 12, only subjects > baseline YBOCS = 26 (median)

SMILES: CN(CC(=O)Nc1nc2ccc(OC(F)(F)F)cc2s1)C(=O)CNC(=O)CN [Troriluzole]
- Y-BOCS outcome versus placebo (in words) (200 mg once daily as adjunctive therapy, all study timepoints (weeks 4 to 12)): consistent numerical improvement over placebo
- YBOCS Compulsions Subscale Change from Baseline, LS Mean (Week 4): −1.72
- YBOCS Compulsions Subscale Change from Baseline, Troriluzole vs Placebo Difference Estimate (Week 4): −0.44
- YBOCS Obsessions Subscale Change from Baseline, LS Mean (Week 4): −1.67
- YBOCS Obsessions Subscale Change from Baseline, Troriluzole vs Placebo Difference Estimate (Week 4): −0.02
- YBOCS Total Change from Baseline, Troriluzole vs Placebo Difference Estimate (Week 4): −0.5
- YBOCS Total Change from Baseline, LS Mean (Week 4, 140 mg QD first 4 weeks then 200 mg QD, added to SOC): −3.4 points
- YBOCS Total Score Change from Baseline, LS Mean (Week 4): −2.8
- YBOCS Total Change from Baseline, LS Mean [1]: −4.1 points
- YBOCS Total Change from Baseline, Troriluzole vs Placebo Difference Estimate [1]: −0.6
- YBOCS Compulsions Subscale Change from Baseline, LS Mean (Week 8): −2.61
- YBOCS Compulsions Subscale Change from Baseline, Troriluzole vs Placebo Difference Estimate (Week 8): −1.20
- YBOCS Obsessions Subscale Change from Baseline, LS Mean (Week 8): −2.50
- YBOCS Obsessions Subscale Change from Baseline, Troriluzole vs Placebo Difference Estimate (Week 8): −0.36
- YBOCS Total Change from Baseline, Troriluzole vs Placebo Difference Estimate (Week 8): −1.5
- YBOCS Total Change from Baseline, LS Mean (Week 8, 140 mg QD first 4 weeks then 200 mg QD, added to SOC): −5.1 points
- YBOCS Total Score Change from Baseline, LS Mean (Week 8): −4.4
- YBOCS Total Change from Baseline, LS Mean [2]: −6.0 points
- YBOCS Total Change from Baseline, Troriluzole vs Placebo Difference Estimate [2]: −2.9
- YBOCS Compulsions Subscale Change from Baseline, LS Mean (Week 12): −3.01
- YBOCS Compulsions Subscale Change from Baseline, Troriluzole vs Placebo Difference Estimate (Week 12): −0.64
- YBOCS Obsessions Subscale Change from Baseline, LS Mean (Week 12): −2.91
- YBOCS Obsessions Subscale Change from Baseline, Troriluzole vs Placebo Difference Estimate (Week 12): −0.36
- YBOCS Total Change from Baseline, Troriluzole vs Placebo Difference Estimate (Week 12): −1.0
- YBOCS Total Change from Baseline, LS Mean (Week 12, 140 mg QD first 4 weeks then 200 mg QD, added to SOC): −5.9 points
- YBOCS Total Score Change from Baseline, LS Mean (Week 12): −5.0
- YBOCS Total Change from Baseline, LS Mean [3]: −7.0 points
- YBOCS Total Change from Baseline, Troriluzole vs Placebo Difference Estimate [3]: −2.4
- safety profile (in vivo): safe and well tolerated

Reference: patent publication US20230181541A1, “COMPOSITIONS AND METHODS FOR TREATING OBSESSIVE-COMPULSIVE DISORDER” (Biohaven Therapeutics Ltd., priority 2020, published 2023)
